The conditions of assay [1]: more potent than doxorubicin; cited from earlier work.
Another assay has as its system preclinical models. Conditions: cited from earlier work.
The test system of a further assay is JIMT-1 cells. The assay can be described thus: In vitro cytotoxicity of free payloads (resazurin cell viability, 3 days). Format: cell-based, human. The conditions noted are these: for IC50 JIMT-1 (HER2 1+): free payload, 3 days incubation, 10 pM to 100 nM; for IC50: Homo sapiens, JIMT-1, 72 h, read-out: IC50 JIMT-1 (HER2 1+). How it is done:
(§1) SK-OV-3, NCI-N87, JIMT-1 and MDA-MB-231 cells were plated in 96-well plates (5000 cells/well) in RPMI-1640 GlutaMAX (Invitrogen) supplemented with 10% fetal bovine serum (FBS) (Invitrogen, 150 μL/well) and incubated overnight in a humidified atmosphere at 37° C. and 5% CO2. Compounds 6a, 6b, 6c, 6d and 6e were added in triplo in a square root of 10-fold dilution series to obtain a final concentration ranging from 1 pM to 10 nM (for SK-OV-3 and NCI-N87) or 10 pM to 100 nM (for JIMT-1 and MDA-MB-231) and a final volume of 200 μL/well. The cells were incubated for 3 days in a humidified atmosphere at 37° C. and 5% CO2. The culture medium was replaced by 0.01 mg/mL resazurin (Sigma Aldrich) in RPMI-1640 GlutaMAX supplemented with 10% FBS (200 μL/well). After 4 hours in a humidified atmosphere at 37° C. and 5% CO2 the fluorescence was detected with a fluorescence plate reader (Infinite® M1000 Tecan) at 560 nm excitation and 590 nm emission. The relative fluorescent units (RFU) were normalized to cell viability percentage by setting wells without cells at 0% viability and wells with untreated cells at 100% viability. Viability was plotted using Graphpad prism software (see FIG. 20).

Another assay has as its system MDA-MB-231 cells. The description is as above. The class given is cell-based. The conditions noted are these: for IC50 MDA-MB-231 (HER2−): free payload, 3 days incubation, 10 pM to 100 nM; for IC50: Homo sapiens, MDA-MB-231, 72 h, read-out: IC50 MDA-MB-231 (HER2−). How it is done:
as §1

In the next assay the test system is SK-OV-3 cells. Described as above. The class given is cell-based. Conditions: Homo sapiens, SK-OV-3, 72 h, read-out: IC50 SK-OV-3 (HER2 3+). How it is done: as §1
Another assay concerns NCI-N87 cells. The assay is described as above. The class given is cell-based. The conditions noted are these: Homo sapiens, NCI-N87, 72 h, read-out: IC50 NCI-N87 (HER2 3+). How it is done:
as §1, with “Compounds 6a, 6b, 6c, 6d and 6e were added in triplo in a square root of 10-fold dilution series to obtain a final concentration ranging from 1 pM to 10 nM (for SK-OV-3 and NCI-N87) or 10 pM to 100 nM (for JIMT-1 and MDA-MB-231) and a final volume of 200 μL/well.” left out

Where [2] appears, read: free payload, 3 days incubation, 1 pM to 10 nM.

The structures appear in SMILES notation. Read-outs that look alike come from different tables or passages of the source.

Regarding `COc1cccc2c1C(=O)c1c(O)c3c(c(O)c1C2=O)C[C@@](O)(C(=O)CO)C[C@@H]3O[C@H]1C[C@H]2[C@H](O[C@@H]3[C@@H](OC)OCCN32)[C@H](C)O1` [PNU-159,682], the “potency relative to doxorubicin” value in assay [1] is > 1000 ×. Also, the MED in the assay with preclinical models was 0.033 mg/kg.
Take `COc1cccc2c1C(=O)c1c(O)c3c(c(O)c1C2=O)C[C@@](O)(C(=O)CO)C[C@@H]3O[C@H]1C[C@H]2[C@H](O[C@@H]3[C@@H](OCCN=[N+]=[N-])OCCN32)[C@H](C)O1` [Compound 6b]: in the assay on JIMT-1 cells, the “IC50 JIMT-1 (HER2 1+)” value was “no accurate IC50 value could be calculated”. Further, the “IC50 MDA-MB-231 (HER2−)” value with MDA-MB-231 cells is reported as “no accurate IC50 value could be calculated”. Also, in the assay with SK-OV-3 cells, the IC50 came to 99 pM.
For the compound `COc1cccc2c1C(=O)c1c(O)c3c(c(O)c1C2=O)C[C@@](O)(C(=O)CO)C[C@@H]3O[C@H]1C[C@H]2[C@H](O[C@@H]3[C@@H](OCc4ccccc4)OCCN32)[C@H](C)O1` [Compound 6d], the IC50 stood at 339 pM with NCI-N87 cells, 259 pM in the assay with JIMT-1 cells, 169 pM with MDA-MB-231 cells and 217 pM in the assay on SK-OV-3 cells.
In the same order, the values of `COc1cccc2c1C(=O)c1c(O)c3c(c(O)c1C2=O)C[C@@](O)(C(=O)CO)C[C@@H]3O[C@H]1C[C@H]2[C@H](O[C@@H]3[C@@H](OCc4ccc(N=[N+]=[N-])cc4)OCCN32)[C@H](C)O1` [Compound 6e] are 795 pM, 520 pM, 705 pM and 845 pM.
The like results for `COc1cccc2c1C(=O)c1c(O)c3c(c(O)c1C2=O)C[C@@](O)(C(=O)CO)C[C@@H]3O[C@H]1C[C@H]2[C@H](O[C@@H]3[C@@H](OC(C)C)OCCN32)[C@H](C)O1` [Compound 6c] were, in that order, 416 pM, 159 pM, 174 pM and 187 pM.
As to `COc1cccc2c1C(=O)c1c(O)c3c(c(O)c1C2=O)C[C@@](O)(C(=O)CO)C[C@@H]3O[C@H]1C[C@H]2[C@H](O[C@@H]3[C@@H](OC)OCCN32)[C@H](C)O1` [Compound 6a, reference compound], the IC50 turned out to be 85 pM in the assay with NCI-N87 cells (setting [2]) and 28 pM with SK-OV-3 cells (setting [2]). For the same compound, the “IC50 JIMT-1 (HER2 1+)” value with JIMT-1 cells was “no accurate IC50 value could be calculated”. Besides, in the assay with MDA-MB-231 cells, the “IC50 MDA-MB-231 (HER2−)” value is “no accurate IC50 value could be calculated”.

For orientation: IC50 means the concentration that inhibits the measured activity by half.

These data come from US20250312474A1, “ANTHRACYCLINS AND CONJUGATES THEREOF” (priority 2022, published 2025).
